“Also recorded” adds a separate entry of the source.
Columns and labels:
[1] = tested on: viral Gag mRNA (Rev-dependent transcripts); assay: Polysomal localization of viral Gag mRNA in PMA-induced ACH-2 cells; assay type: cell-based, HIV-1; conditions: 200 μM
Experimental: (§1) 142, 431-438 (1989), which is hereby incorporated by reference]. However, vigorous HIV-1 production by ACH-2 cells is induced by addition of the phorbol ester PMA [Pomerantz et al., Cell 61, 1271-1276 (1990) and Michael et al., J. Virol 65, 1291-1303 (1991), which are hereby incorporated by reference]. This system was selected for these experiments. Logarithmically growing ACH-2 cells, suspended at a concentration of 3×10^5 /ml, were incubated with the hypusine inhibitors mimosine and HK-1 at a final concentration of 200 μM. After 8 hours, viral replication was activated by addition of PMA to these cells and to untreated controls (100 ng/ml final PMA concentration). […] An aliquot of each fraction was analyzed by slot blotting, using the pXC-1 genomic ribosomal DNA probe from rat containing the 18S rRNA coding sequence [Rimarachin, Szabo et al., In Vitro 28A, 705-707 (1992), which is hereby incorporated by reference], to determine the location within the gradient of 18S rRNA, i.e., the distribution of polysomes vs. monosomes. […] Following electrophoresis, the radio-labeled PCR products were visualized by autoradiography according to routine techniques, and the band intensities quantified by densitometric analysis and expressed relative to total product per gradient.

[2] = tested on: HIV-1 producing ACH-2 cells; assay: Electron microscopy of PMA-induced ACH-2 cells; assay type: cell-based, human
Experimental: FIGS. 11A and B show, representative ultrastructural findings observed in PMA-induced/untreated (FIG. 11A) and PMA-induced/mimosine-treated (FIG. 11B) ACH-2 cells immediately at the end of the 18-hour incubation period. […] Note, however, that such changes occur rapidly after withdrawal of the inhibitors (compare to time course detailed in FIGS. 12A and B and FIGS. 14A-H). [Magnification: 9100×].
3. Ultrastructural investigation of antiviral effect. ACH-2 cells were incubated with hypusine inhibitors (mimosine, HK-1) and induced with PMA as outlined in Example II A. Harvesting, fixation of cells, and electron microscopy were performed according to established techniques [Michael et al., J. Virol 65, 1291-1303 (1991), which is hereby incorporated by reference].

[3] = tested on: deoxyhypusyl hydroxylase (DOHH); conditions: previously established, Hanauske-Abel et al.; cited from earlier work
[4] = tested on: cellular deoxyhypusyl hydroxylase; conditions: Hanauske-Abel et al. 1994; cited from earlier work
GAPDH mRNA = assay: Polysomal localization of cellular GAPDH mRNA in PMA-induced ACH-2 cells; assay type: cell-based, human; conditions: 200 μM, FIG. 6
Experimental: as §1

Q: With N[C@@H](Cn1ccc(=O)c(O)c1)C(=O)O [L-Mimosine] as the compound, how does the “polysomal localization of viral Gag mRNA” value ([1]; FIG. 6) read?
A: redirects a significant portion of the Rev-dependent Gag mRNAs into the non-polysomal fractions

Q: And the “polysomal localization of viral Gag mRNA” value ([1]; FIG. 6, listed as minosine)?
A: shifted away from the polysomal protein producing machinery into the pool of monosomal/free MRNA

Q: What about the “cells with early apoptotic nuclear changes” value ([2]; PMA-induced ACH-2, FIG. 11B) of the same compound?
A: about 20%

Q: And the “number of viral particles in extracellular space” value ([2]; PMA-induced ACH-2, end of 18-hour incubation, FIG. 11B)?
A: marked reduction in the number of viral particles; also recorded: prominent reduction in the number of infectious particles in the extracellular space

Q: And the “ultrastructural appearance of treated cells” value ([2]; PMA-induced ACH-2, end of incubation, FIG. 11B)?
A: normal ultrastructural appearance of the treated ACH-2 cells; also recorded: still lacks overt morphological signs of cell damage

Q: What about the “hypusine inhibition in cell-free system” value [3] of the same compound?
A: act as hypusine inhibitors in this cell-free system

Q: What about the “inhibition of purified and cellular deoxyhypusyl hydroxylase” value [4] of the same compound?
A: inhibit purified and cellular deoxyhypusyl hydroxylase

Q: And the “polysomal localization of GAPDH mRNA” value (GAPDH mRNA)?
A: did not affect the polysomal loading of cellular MRNA; also recorded: only a marginal effect on the distribution of GAPDH mRNA

Reference: patent US5849587A, “Method of inhibiting viral replication in eukaryotic cells and of inducing apoptosis of virally-infected cells” (Cornell Research Foundation, Inc., priority 1995, dated 1998)
